These results are taken from US6011135A, “Triazine thiol derivative having a perfluoro group, method for producing same and use of same” (Iwate University, priority 1997, dated 2000).

What all share (format): physicochemical
A short description of data set [1]: Oxidation potential, yardstick for easiness of tribological and electrolytic polymerization. From the text: (§1) In Table 5 below, there is shown the effectiveness of 6-perfluoro alkylamino-1,3,5-triazine-2,4-dithiol of examples of the present invention by comparing the dissociation constants, oxidation potential and critical micelle concentration with those of the comparative example.
(§2) With respect to the dissociation constants (pKa1, pKa2), which may function as a yardstick for reactivity, all the examples of the present invention have lower dissociation constants than the comparative example. Accordingly, it is understood that the triazine thiol derivative having a perfluoro group of the present invention has an excellent reactivity. With regard to the oxidation potential which functions as a yardstick for easiness of tribological polymerization and electrolytic polymerization, each example has a lower oxidation potential than the comparative example. This means that an oxidative polymerization of the triazine thiol derivative having a perfluoro group according to the present invention is easier than that of the comparative example. Further, the critical micelle concentration of every example is lower than that of the comparative example. This means that micelle formation is easier in the examples and thus, the triazine thiol derivative having a perfluoro group according to the present invention has an excellent surface activity.

Data set [2] can be described thus: Critical micelle concentration (surface activity).
Text: as §1, §2

Data set [3] is described as follows: Solubility of 6-perfluoro alkylamino-1,3,5-triazine-2,4-dithiol to various solvents. Further details: key to Solubility, Toluene: X: did not solved; Δ: slightly solved (1 wt % or less); .largecircle.: sufficiently solved (1-10 wt %); .circleincircle.: excellently solved (10 wt % or more).
Data set [4] can be described thus: Dissociation constants (pKa1, pKa2), yardstick for reactivity. Conditions: dissociation constant.
Text: as §1, §2

In turn, `FC(F)(F)C(F)(F)C(F)(F)C(F)(F)C(F)(F)C(F)(F)C(F)(F)c1ccc(Nc2nc(S)nc(S)n2)cc1` [Comparative example, reference compound] showed an Oxidation potential in data set [1] of 0.90 V vs. Ag^+ /Ag. This compound also showed a Critical micelle concentration in data set [2] of 0.022 mol/L. Also, in data set [3], the “Solubility, MEK” value is “Δ (slightly solved (1 wt % or less))”; the “Solubility, Acetic ether” value is reported as “Δ (slightly solved (1 wt % or less))”; the “Solubility, Ethanol” value is listed as “Δ (slightly solved (1 wt % or less))”; the “Solubility, Toluene” value is “X”. Further, the “Solubility, Water” value in data set [3] is recorded as “Δ (slightly solved (1 wt % or less))”. In data set [4], the pKa1 amounted to 8.3 and the pKa2 is listed as 10.7.

The compound `FC(F)(F)C(F)(F)C(F)(F)C(F)(F)C(F)(F)C(F)(F)C(F)(F)CNc1nc(S)nc(S)n1` [Example 11] had an Oxidation potential in data set [1] of 0.62 V vs. Ag^+ /Ag. For the same compound, in data set [2], the Critical micelle concentration is 0.0021 mol/L. In data set [3], the “Solubility, MEK” value is listed as “.largecircle. (sufficiently solved (1-10 wt %))”; the “Solubility, Acetic ether” value is listed as “Δ (slightly solved (1 wt % or less))”; the “Solubility, Ethanol” value is on record as “.largecircle. (sufficiently solved (1-10 wt %))”; the “Solubility, Toluene” value was “Δ (slightly solved (1 wt % or less))”. Further, in data set [3], the “Solubility, Water” value is “.largecircle. (sufficiently solved (1-10 wt %))”. Also, in data set [4], the pKa1 was 8.1 and the pKa2 is listed as 10.3.

In data set [1], `CCCCN(CC(F)(F)C(F)(F)C(F)(F)C(F)(F)C(F)(F)C(F)(F)C(F)(F)F)c1nc(S)nc(S)n1` [Example 12] showed an Oxidation potential of 0.46 V vs. Ag^+ /Ag. Further, the Critical micelle concentration in data set [2] worked out at 2.1e-05 mol/L. Further, in data set [3], the “Solubility, MEK” value was “.circleincircle. (excellently solved (10 wt % or more))”; the “Solubility, Acetic ether” value is on record as “.largecircle. (sufficiently solved (1-10 wt %))”; the “Solubility, Ethanol” value is “.largecircle. (sufficiently solved (1-10 wt %))”; the “Solubility, Toluene” value was “.largecircle. (sufficiently solved (1-10 wt %))”. Besides, in data set [3], the “Solubility, Water” value is recorded as “.largecircle. (sufficiently solved (1-10 wt %))”. In data set [4], this compound yielded a pKa1 of 7.4 and a pKa2 of 10.4.

As to `FC(F)(F)C(F)(F)C(F)(F)C(F)(F)C(F)(F)C(F)(F)C(F)(F)CN(c1nc(S)nc(S)n1)C1CCCCC1` [Example 13], the Oxidation potential in data set [1] was found to be 0.78 V vs. Ag^+ /Ag. For the same compound, the Critical micelle concentration in data set [2] turned out to be 5.6e-05 mol/L. For the same compound, in data set [3], the “Solubility, MEK” value is listed as “.circleincircle. (excellently solved (10 wt % or more))”; the “Solubility, Acetic ether” value is “.largecircle. (sufficiently solved (1-10 wt %))”; the “Solubility, Ethanol” value was “.largecircle. (sufficiently solved (1-10 wt %))”; the “Solubility, Toluene” value was “.largecircle. (sufficiently solved (1-10 wt %))”. In addition, the “Solubility, Water” value in data set [3] is “.largecircle. (sufficiently solved (1-10 wt %))”. In data set [4], this compound registered a pKa1 of 6.2 and a pKa2 of 10.6.

As to `CCCCN(CC(F)(F)C(F)(F)C(F)(F)C(F)(F)C(F)(F)C(F)(F)C(F)(F)C(F)(F)C(F)(F)C(F)(F)F)c1nc(S)nc(S)n1` [Example 14], the Oxidation potential in data set [1] is on record as 0.56 V vs. Ag^+ /Ag. The Critical micelle concentration in data set [2] was 1.1e-05 mol/L. In data set [3], the “Solubility, MEK” value is listed as “.circleincircle. (excellently solved (10 wt % or more))”; the “Solubility, Acetic ether” value is on record as “.largecircle. (sufficiently solved (1-10 wt %))”; the “Solubility, Ethanol” value is listed as “.largecircle. (sufficiently solved (1-10 wt %))”; the “Solubility, Toluene” value is “.largecircle. (sufficiently solved (1-10 wt %))”. The “Solubility, Water” value in data set [3] is given as “.largecircle. (sufficiently solved (1-10 wt %))”. Besides, in data set [4], the pKa1 amounted to 7.5 and the pKa2 is on record as 9.8.
